Test: Blood tests on the horses on the days of the race (Table 1)
Assay type: in vivo, horse
Settings: for RBC = red blood cell count: day 1 value 10.2; for WBC = white blood cell count: day 1 value 12.8; for RDWc: day 1 value 22.5; for PDW: day 1 value 32.6; for TBIL = total biliruben: day 1 value 37; for TP = total protein: day 1 value 79; for PLT = platelets: day 1 value 83
Protocol: The apparatus 10 was used in a confidential trial to treat five horses taking part in an endurance race. The five horses were called Moniq, Shamon, Pauli, Viola and Ophelia. During treatment, the average temperature inside the enclosure 22 was between 42° C. and 45° C. and an oxygen flow rate of 1 l/min was supplied to the ozonator 52. During treatment, the average heart-rate for the non-accustomed horses was 42 beats per minute. The superficial skin temperature measured on the neck and the point of the shoulder of the horses was 39° C. in each case.
Table 1 provides information on the blood tests conducted on the five horses, on the days of the race as indicated.

[1] = horse Moniq, race day 2, treated days 1 and 2, day 1 value 4.4
[2] = horse Moniq, race day 2, treated days 1 and 2
[3] = horse Moniq, race day 3, treated days 1 and 2, day 1 value 4.4
[4] = horse Moniq, race day 3, treated days 1 and 2
[5] = horse Pauli, race day 2, pre-treated before race

For O=[O+][O-] [ozone], the PCT (horse Moniq, race day 2, treated days 1 and 2, day 1 value 0.04) was 0.07%, the “MON = monocytes” value (horse Moniq, race day 2, treated days 1 and 2, day 1 value 0.57) was 6e+07 L⁻¹ and the “LYM = lymphocytes” value (horse Moniq, race day 2, treated days 1 and 2, day 1 value 1.80) was 1.96e+09 L⁻¹. For the same molecule, the “CA++ = calcium” value (horse Moniq, race day 2, treated days 1 and 2, day 1 value 2.98) was 2.98 mmol/L, the “K+ = potassium” value [1] was 4.3 mmol/L and the “MON % = monocytes percentage” value [1] was 0.6%. For the same molecule, the “GLU = glucose” value (horse Moniq, race day 2, treated days 1 and 2, day 1 value 4.7) was 6.1 mmol/L, the “BUN = blood urea nitrogen” value (horse Moniq, race day 2, treated days 1 and 2, day 1 value 8) was 9 mmol/L and the “RBC = red blood cell count” value [2] was 9.21e+12 L⁻¹. For the same molecule, the “GRA = granulocytes” value (horse Moniq, race day 2, treated days 1 and 2, day 1 value 10.5) was 7.55e+09 L⁻¹, the “GGT = gamma glutamiel transferase” value (horse Moniq, race day 2, treated days 1 and 2, day 1 value 12) was 11 Units/liter and the “WBC = white blood cell count” value [2] was 9.56e+09 L⁻¹. For the same molecule, the “LY % = lymphocytes percentage” value (horse Moniq, race day 2, treated days 1 and 2, day 1 value 14.0) was 20.5%, the “MCH = mean corpuscular hemoglobin” value (horse Moniq, race day 2, treated days 1 and 2, day 1 value 15.1) was 14.7 pg and the “HB = hemoglobin” value (horse Moniq, race day 2, treated days 1 and 2, day 1 value 15.5) was 13.6 d/deciliter. The RDWc [2] was 22.2%, the PDW [2] was 37.2 and the “ALB = albumin” value (horse Moniq, race day 2, treated days 1 and 2, day 1 value 36) was 34 gram/liter. For the same molecule, the “TBIL = total biliruben” value [2] was 58 µmol/L, the “MCV = mean corpuscular volume” value (horse Moniq, race day 2, treated days 1 and 2, day 1 value 38) was 37 femtoliter and the “MCHC = mean corpuscular hemoglobin concentration” value (horse Moniq, race day 2, treated days 1 and 2, day 1 value 40.0) was 39.6 gram/deciliter. For the same molecule, the “GLOB = globulin” value (horse Moniq, race day 2, treated days 1 and 2, day 1 value 43) was 40 gram/liter, the “TP = total protein” value [2] was 75 gram/liter and the “GR % = granulocytes percentage” value (horse Moniq, race day 2, treated days 1 and 2, day 1 value 81.6) was 78.9%. The “PLT = platelets” value [2] was 1.24e+11 L⁻¹, the “CRE = creatinine” value (horse Moniq, race day 2, treated days 1 and 2, day 1 value 96) was 106 µmol/L and the “Na+ = sodium” value (horse Moniq, race day 2, treated days 1 and 2, day 1 value 139) was 137 mmol/L. For the same molecule, the “AST = aspertate amino transferase” value (horse Moniq, race day 2, treated days 1 and 2, day 1 value 468) was 564 Units/liter, the “CK = creatine kinase” value (horse Moniq, race day 2, treated days 1 and 2, day 1 value 3873) was 706 International Units/liter and the PCT (horse Moniq, race day 3, treated days 1 and 2, day 1 value 0.04) was 0.07%. For the same molecule, the “MON = monocytes” value (horse Moniq, race day 3, treated days 1 and 2, day 1 value 0.57) was 6e+07 L⁻¹, the “LYM = lymphocytes” value (horse Moniq, race day 3, treated days 1 and 2, day 1 value 1.80) was 1.06e+09 L⁻¹ and the “CA++ = calcium” value (horse Moniq, race day 3, treated days 1 and 2, day 1 value 2.98) was 2.98 mmol/L. For the same molecule, the “K+ = potassium” value [3] was 4.3 mmol/L, the “MON % = monocytes percentage” value [3] was 0.6% and the “GLU = glucose” value (horse Moniq, race day 3, treated days 1 and 2, day 1 value 4.7) was 6.1 mmol/L. The “BUN = blood urea nitrogen” value (horse Moniq, race day 3, treated days 1 and 2, day 1 value 8) was 9 mmol/L, the “RBC = red blood cell count” value [4] was 9.21e+12 L⁻¹ and the “GRA = granulocytes” value (horse Moniq, race day 3, treated days 1 and 2, day 1 value 10.5) was 7.55e+09 L⁻¹. For the same molecule, the “GGT = gamma glutamiel transferase” value (horse Moniq, race day 3, treated days 1 and 2, day 1 value 12) was 11 Units/liter, the “WBC = white blood cell count” value [4] was 9.56e+09 L⁻¹ and the “LY % = lymphocytes percentage” value (horse Moniq, race day 3, treated days 1 and 2, day 1 value 14.0) was 20.5%. For the same molecule, the “MCH = mean corpuscular hemoglobin” value (horse Moniq, race day 3, treated days 1 and 2, day 1 value 15.1) was 14.7 pg, the “HB = hemoglobin” value (horse Moniq, race day 3, treated days 1 and 2, day 1 value 15.5) was 17.0 d/deciliter and the RDWc [4] was 22.2%. For the same molecule, the PDW [4] was 37.2, the “ALB = albumin” value (horse Moniq, race day 3, treated days 1 and 2, day 1 value 36) was 34 gram/liter and the “TBIL = total biliruben” value [4] was 58 µmol/L. For the same molecule, the “MCV = mean corpuscular volume” value (horse Moniq, race day 3, treated days 1 and 2, day 1 value 38) was 37 femtoliter, the “MCHC = mean corpuscular hemoglobin concentration” value (horse Moniq, race day 3, treated days 1 and 2, day 1 value 40.0) was 39.6 gram/deciliter and the “GLOB = globulin” value (horse Moniq, race day 3, treated days 1 and 2, day 1 value 43) was 40 gram/liter. For the same molecule, the “TP = total protein” value [4] was 75 gram/liter, the “GR % = granulocytes percentage” value (horse Moniq, race day 3, treated days 1 and 2, day 1 value 81.6) was 78.8% and the “PLT = platelets” value [4] was 1.27e+11 L⁻¹. The “CRE = creatinine” value (horse Moniq, race day 3, treated days 1 and 2, day 1 value 96) was 106 µmol/L, the “Na+ = sodium” value (horse Moniq, race day 3, treated days 1 and 2, day 1 value 139) was 137 mmol/L and the “AST = aspertate amino transferase” value (horse Moniq, race day 3, treated days 1 and 2, day 1 value 468) was 564 Units/liter. The “CK = creatine kinase” value (horse Moniq, race day 3, treated days 1 and 2, day 1 value 3873) was 706 International Units/liter, the “ALB = albumin” value [5] was 32 gram/liter and the “AST = aspertate amino transferase” value [5] was 379 Units/liter. The “BUN = blood urea nitrogen” value [5] was 9 mmol/L, the “CA++ = calcium” value [5] was 3.13 mmol/L and the “CK = creatine kinase” value [5] was 1378 International Units/liter. For the same molecule, the “CRE = creatinine” value [5] was 129 µmol/L, the “GGT = gamma glutamiel transferase” value [5] was 19 Units/liter and the “GLOB = globulin” value [5] was 47 gram/liter. The “GLU = glucose” value [5] was “*6.9 mmol/liter”, the “GR % = granulocytes percentage” value [5] was 88.0% and the “GRA = granulocytes” value [5] was 1.76e+10 L⁻¹. The “HB = hemoglobin” value [5] was 16.6 d/deciliter, the “K+ = potassium” value [5] was 5.1 mmol/L and the “LY % = lymphocytes percentage” value [5] was 7.0%. The “LYM = lymphocytes” value [5] was 1.39e+09 L⁻¹, the “MCH = mean corpuscular hemoglobin” value [5] was 15.8 pg and the “MCHC = mean corpuscular hemoglobin concentration” value [5] was 38.8 gram/deciliter. The “MCV = mean corpuscular volume” value [5] was 41 femtoliter, the “MON % = monocytes percentage” value [5] was 4.0% and the “MON = monocytes” value [5] was 8e+08 L⁻¹. For the same molecule, the “Na+ = sodium” value [5] was 143 mmol/L and the PCT [5] was 0.05%.

From patent publication US20090314217A1, “APPARATUS AND METHOD FOR TREATING NON-HUMAN MAMMALS” (Under The Boardwalk Properties 8 (Proprietary) Limited, priority 2006, published 2009)
